From patent publication US11840686B2, “Modulation of prekallikrein (PKK) expression” (Ionis Pharmaceuticals, Inc., priority 2013, dated 2023)
Strand notation (5' to 3'): a small letter for the sugar, then the base; units joined by * are phosphorothioate-linked, units joined directly phosphodiester-linked; [ ] holds rarer units or linkages, { } end groups; capitals alone tell only the bases. e = 2'-O-(2-methoxyethyl) (MOE); [5mC] = 5-methylcytosine; d = 2'-deoxy (DNA)

Legend:
human PKK mRNA [1] = assay: Antisense inhibition of human PKK mRNA in HepaRG cells, 5,000 nM (Example 2); type: cell-based
Summary of the method: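 Percent inhibition of PKK mRNA is reported relative to untreated cells, after adjustment for total RNA by RIBOGREEN. Gapmers of 16–20 nucleosides with 2′-MOE wings were delivered at 5,000 nM by electroporation into HepaRG cells and left for roughly 24 hours before RNA isolation.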

human PKK mRNA [2] = assay: Dose-dependent antisense inhibition of human PKK in HepaRG cells, 0.19-5.00 uM (Example 5); type: cell-based; conditions: HepaRG cells; for percent inhibition of PKK at 0.19 μM / percent inhibition of PKK at 0.56 μM / percent inhibition of PKK at 1.67 μM / percent inhibition of PKK at 5.00 μM / percent inhibition of PKK at 0.19 0μM / percent inhibition of PKK at 0.56 0μM / percent inhibition of PKK at 1.67 1μM: electroporation, approximately 16 hours; for IC50: 4 point dose response
Summary of the method: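 HepaRG cells (20,000/well) were electroporated with antisense oligonucleotide at 0.19, 0.56, 1.67 and 5.00 μM and treated for about 16 hours. PKK mRNA was quantified by qRT-PCR with primer probe set RTS3454, normalised to RIBOGREEN total RNA, and IC50 was derived per oligonucleotide.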

[3] = Table 8, HepaRG cells, electroporation with 5,000 nM antisense oligonucleotide, approx. 24 hours, PKK mRNA by RT-PCR (RTS3454), relative to untreated control cells

With “547633 (antisense eA*eT*e[5mC]*eA*e[5mC]*dT*dG*dT*d[5mC]*d[5mC]*dT*dA*dT*dA*dT*e[5mC]*eA*e[5mC]*eT*e[5mC]) [compound 547633]” the “% inhibition” value (human PKK mRNA [1]; human PKK mRNA, HepaRG cells, 5-10-5 motif oligonucleotides targeting SEQ ID NO: 1 and 10) was 87%, the “percent inhibition of PKK at 0.19 μM” value (human PKK mRNA [2]; Table 39) was 12% and the “percent inhibition of PKK at 0.56 μM” value (human PKK mRNA [2]; Table 39) was 46%. The “percent inhibition of PKK at 1.67 μM” value (human PKK mRNA [2]; Table 39) was 78% and the IC50 (human PKK mRNA [2]; Table 39) was 700 nM.
“546268 (e[5mC]*eT*eT*e[5mC]*e[5mC]*dT*dT*dA*d[5mC]*dA*dG*dT*d[5mC]*dT*dT*e[5mC]*eT*eG*eG*eG; antisense) [compound 546268]” was tested, and the “% inhibition” value (human PKK mRNA [1]; [3]) was 93%, the “percent inhibition of PKK at 0.19 μM” value (human PKK mRNA [2]; Table 35) was 56% and the “percent inhibition of PKK at 0.56 μM” value (human PKK mRNA [2]; Table 35) was 50%. For the same substance, the “percent inhibition of PKK at 1.67 μM” value (human PKK mRNA [2]; Table 35) was 82%, the “percent inhibition of PKK at 5.00 μM” value (human PKK mRNA [2]; Table 35) was 93% and the “percent inhibition of PKK at 5.00 μM” value (human PKK mRNA [2]; Table 41) was 92%. For the same substance, the “percent inhibition of PKK at 0.19 0μM” value (human PKK mRNA [2]; Table 41) was 0%, the “percent inhibition of PKK at 0.56 0μM” value (human PKK mRNA [2]; Table 41) was 71% and the “percent inhibition of PKK at 1.67 1μM” value (human PKK mRNA [2]; Table 41) was 92%. The IC50 (human PKK mRNA [2]; Table 41) was 500 nM.
With “547273 (antisense eT*eG*eA*eG*eT*d[5mC]*dT*d[5mC]*dT*dT*dG*dT*d[5mC]*dA*d[5mC]*eT*eT*eA*eA*eA) [compound 547273]” the “% inhibition” value (human PKK mRNA [1]; HepaRG cells, electroporation with 5,000 nM antisense oligonucleotide, approximately 24 hours, PKK mRNA by RT-PCR (RTS3454), relative to untreated control cells, Table 5 experiment) was 93%, the “percent inhibition of PKK at 0.19 μM” value (human PKK mRNA [2]; Table 35) was 44% and the “percent inhibition of PKK at 0.56 μM” value (human PKK mRNA [2]; Table 35) was 69%. For the same substance, the “percent inhibition of PKK at 1.67 μM” value (human PKK mRNA [2]; Table 35) was 87%, the “percent inhibition of PKK at 5.00 μM” value (human PKK mRNA [2]; Table 35) was 87% and the “percent inhibition of PKK at 5.00 μM” value (human PKK mRNA [2]; Table 41) was 83%. For the same substance, the “percent inhibition of PKK at 0.19 0μM” value (human PKK mRNA [2]; Table 41) was 0%, the “percent inhibition of PKK at 0.56 0μM” value (human PKK mRNA [2]; Table 41) was 60% and the “percent inhibition of PKK at 1.67 1μM” value (human PKK mRNA [2]; Table 41) was 82%. For the same substance, the IC50 (human PKK mRNA [2]; Table 35) was 200 nM and the IC50 (human PKK mRNA [2]; Table 41) was 600 nM.
For “546291 (antisense e[5mC]*eA*eG*eG*eG*d[5mC]*d[5mC]*dA*d[5mC]*dT*d[5mC]*dT*d[5mC]*d[5mC]*d[5mC]*e[5mC]*eA*eA*eG*eA) [compound 546291]”, the “% inhibition” value (human PKK mRNA [1]; [3]) was 81%, the “percent inhibition of PKK at 0.19 μM” value (human PKK mRNA [2]; Table 40) was 22% and the “percent inhibition of PKK at 0.56 μM” value (human PKK mRNA [2]; Table 40) was 32%. The “percent inhibition of PKK at 1.67 μM” value (human PKK mRNA [2]; Table 40) was 34%, the “percent inhibition of PKK at 5.00 μM” value (human PKK mRNA [2]; Table 40) was 72% and the IC50 (human PKK mRNA [2]; Table 40) was 2000 nM.
With “547453 (antisense eT*e[5mC]*eA*eT*eG*dA*dT*dT*d[5mC]*d[5mC]*d[5mC]*dT*dT*d[5mC]*dT*eG*eA*eG*eA*e[5mC]) [compound 547453]” the “% inhibition” value (human PKK mRNA [1]; Table 9 experiment, HepaRG cells, 20,000 cells per well, electroporation with 5,000 nM antisense oligonucleotide, approx. 24 hours, PKK mRNA by RT-PCR (RTS3454), relative to untreated control cells) was 81%, the “% inhibition” value (human PKK mRNA [1]; Table 10 experiment, HepaRG cells, 20,000 cells per well, electroporation with 5,000 nM antisense oligonucleotide, approx. 24 hours, PKK mRNA by RT-PCR (RTS3454), relative to untreated control cells) was 81% and the “percent inhibition of PKK at 0.19 μM” value (human PKK mRNA [2]; Table 39) was 25%. For the same substance, the “percent inhibition of PKK at 0.56 μM” value (human PKK mRNA [2]; Table 39) was 40%, the “percent inhibition of PKK at 1.67 μM” value (human PKK mRNA [2]; Table 39) was 54% and the “percent inhibition of PKK at 5.00 μM” value (human PKK mRNA [2]; Table 39) was 92%. The IC50 (human PKK mRNA [2]; Table 39) was 800 nM.
For “548744 (DNA eT*e[5mC]*eA*e[5mC]*dT*dG*dT*dA*d[5mC]*dT*dA*dG*dT*eT*eT*e[5mC]*e[5mC]; antisense) [compound 548744]”, the “% inhibition” value (human PKK mRNA [1]; human PKK mRNA, HepaRG cells, 5,000 nM antisense oligonucleotide, Table 18) was 83%, the “percent inhibition of PKK at 0.19 μM” value (human PKK mRNA [2]; Table 38) was 14% and the “percent inhibition of PKK at 0.56 μM” value (human PKK mRNA [2]; Table 38) was 35%. The “percent inhibition of PKK at 1.67 μM” value (human PKK mRNA [2]; Table 38) was 63%, the “percent inhibition of PKK at 5.00 μM” value (human PKK mRNA [2]; Table 38) was 83% and the IC50 (human PKK mRNA [2]; Table 38) was 1000 nM.
In the case of “546403 (e[5mC]*e[5mC]*eA*eT*eG*dA*dA*d[5mC]*dA*dT*d[5mC]*d[5mC]*dT*dA*dT*e[5mC]*e[5mC]*eG*eT*eG; antisense) [compound 546403]”, the “% inhibition” value (human PKK mRNA [1]; HepaRG cells, electroporation, 5,000 nM antisense oligonucleotide, approx. 24 hours, primer probe set RTS3454, relative to untreated control cells, Table 12) is reported as 83%, the “percent inhibition of PKK at 0.19 μM” value (human PKK mRNA [2]; Table 38) is reported as 0% and the “percent inhibition of PKK at 0.56 μM” value (human PKK mRNA [2]; Table 38) is reported as 20%. For the same substance, the “percent inhibition of PKK at 1.67 μM” value (human PKK mRNA [2]; Table 38) was 37%, the “percent inhibition of PKK at 5.00 μM” value (human PKK mRNA [2]; Table 38) was 41% and the IC50 (human PKK mRNA [2]; Table 38) was > 5000 nM.
